Experimental data published in patent US20140242609A1, “Diagnosis and treatment of kidney stones, methods and compositions therefor” (Washington University, priority 2013, published 2014).

How the values were obtained:
[1] = test system: miR-374 promoter; assay: ChIP over miR-374 promoter in TALH cells of treated mice; format: in vivo, mouse; details: for H3K9 and H3K14 acetylation levels, miR-374 promoter region / fold enrichment of NFATc1 over miR-374 promoter region: 30 mg/kg BW−1, 2 hrs; for H3K9 and H3K14 acetylation levels, miR-374 promoter region: higher than vehicle level; for fold enrichment of NFATc1 over miR-374 promoter region: versus vehicle
Description: (§1) Freshly isolated TALH cells or primary TALH cell cultures were cross-linked in 1% paraformaldehyde (pH7.0) for 10 min at room temperature. The cross-linked cells were lysed following to instruction of MAGnify ChIP system (Invitrogen). Chromatin was sonicated into 500 bp fragments with Bioruptor UCD-200 (High power, 15 cycles of 30 seconds ON, 30 seconds OFF; Diagenode). Sheared chromatin was precipitated with antibody-bound Dynabeads (Invitrogen). Following reverse crosslink and DNA extraction, antibody-bound DNA was eluted and analyzed with real-time PCR. Two criteria for normalization were applied: fold enrichment over anti-IgG background signal and input control over chromatin input signal.
as §1, with “OFF,” for “OFF;”

[2] = test system: pri-miR-374; assay: pri-miR-374 transcript levels in TALH of treated mouse kidneys (real-time PCR); format: in vivo; details: for pri-miR-374 levels versus control: 8 hrs
Text: Total RNA including microRNA was extracted using Trizol (Invitrogen). Cellular mRNA was reverse transcribed using the Superscript-III kit (Invitrogen), followed by real-time PCR amplification using SYBR Green PCR Master Mix (Bio-Rad) and Eppendorf Realplex2S system. The design of claudin-14 primers was described above. The design of pri-miRNA primers was according to Ma et al., (2010). Results were expressed as 2^−ΔCt values with ΔCT=Ctgene−Ctβ-actin.
To measure the transcriptional level for microRNA gene in vivo in the kidney, the inventors designed primers (see Methods; Table 2) to amplify the pri-miRNA molecule, the original transcript for microRNA gene that had not yet been subjected to any nuclear or cellular processing. Because both miR-9 and miR-374 had broader localization profiles along the nephron, the inventors isolated the TALH tubular cells for pri-miRNA analyses from the mouse kidney described elsewhere in this study. WT mice (strain: C57BL/6) were treated with NPS2143 or cinacalcet as described for claudin-14 analyses and assayed for pri-miRNA levels in isolated TALH cells at 2 hrs and 8 hrs respectively. […] NPS2143 and cinacalcet also profoundly regulated pri-miR-374. […] The expression levels of miR-9-1 and miR-374 genes were both inversely correlated with that of claudin-14 gene in the kidney, compatible with the silencing role of microRNA in regulating its target gene.
(§2) Total RNA including microRNA was extracted using Trizol (Invitrogen). Cellular mRNA was reverse transcribed using the Superscript-III kit (Invitrogen), followed by real-time PCR amplification using SYBR Green PCR Master Mix (Bio-Rad) and Eppendorf Realplex2S system. The design of claudin-14 primers was described before by Gong et al., 2012. The design of pri-miRNA primers and ChIP primers was according to Gong et al., 2013. Results were expressed as 2^−ΔCt values with ΔCT=Ctgene−Ctβ-actin.
as §2, with “by Gong. Y.,” for “by Gong”, “primers” for “primers and ChIP primers”, “to Ma. L.,” for “to Gong”, “al., 2010.” for “al., 2013.”

[3] = test system: claudin-14 protein; assay: claudin-14 protein levels in freshly isolated TALH cells pooled from treated mouse kidneys (western blot); format: in vivo; details: for claudin-14 protein levels, change: 30 mg/kg BW−1 per day for 6 days, 24 hrs following the last treatment
Description: (§3) An immunomagnetic separation method was used to isolate the TAL cells from the mouse kidney (Hou et al., 2009). Antibodies against the TAL cell specific surface antigen, Tamm-Horsfall protein (THP), were coated onto the paramagnetic polystyrene beads (Dynabeads M-280; Dynal), allowing immunoprecipitation of the TAL cells from collagenase digested mouse kidneys. The isolated cells were plated in DMEM medium supplemented with 10% FBS, penicillin/streptomycin, and 1 mM sodium pyruvate for 16 hours, followed by immediate transfection with NFAT or antagomirs.
Because of the low abundance of claudin-14 proteins in the whole kidney, an immunomagnetic separation method was adapted to freshly isolate the TALH tubular cells from the kidneys of each treated mouse, pooled the TALH cells from all animals (N=5) within each treatment group and quantified claudin-14 protein levels by western blot. […] Claudin-14 proteins were immunostained in mouse kidneys to investigate changes in TJ localization.
as §3, with “TALH” for “TAL”, “kidney. (Gong Y,” for “kidney (Hou”, “al. 2012 and Gong Y, et al. 2013)” for “al., 2009).”, “protein,” for “protein (THP),”, “treatment.” for “transfection with NFAT or antagomirs.”
as §3, with “TALH” for “TAL”, “kidney. (Gong, Y.,” for “kidney (Hou”, “2012; Hou, J., et al., 2009)” for “2009).”, “(THP; a GPI-anchored protein that is exclusively expressed in the TALH and the early part of the DCT,) (Stricklett, P. K., et al., 2003; Bernascone, I., et al., 2010)” for “(THP),”, “NFAT.” for “NFAT or antagomirs.”
Changes in claudin-14 protein levels were captured as early as 2 hrs following a single oral dose of NPS2143 or cinacalcet (30 mg/kg BW^−1) treatment. Because of the low abundance of claudin-14 proteins in the whole kidney, the inventors adapted an immunomagnetic separation method to freshly isolate the TALH tubular cells from the kidneys of each treated mouse (described in Gong, Y., et al., 2012 and Hou, J., et al. 2009; see Methods), pooled the TALH cells from all animals (N=5) within each treatment group, isolated plasma membrane proteins and quantified claudin-14 protein levels by western blot. […] Although claudins were previously considered static molecules sequestered in the tight junction, several recent studies have found similarly rapid turnover rate of less than 60 min for claudins (see Discussion). Claudin-14 proteins were inummuostained in mouse kidneys to investigate changes in TJ localization.

[4] = cyclosporine-A pre-treated animals, 30 mg/kg BW−1, 2 hrs

SMILES	H3K9 and H3K14 acetylation levels, miR-374 promoter region [1]	fold enrichment of NFATc1 over miR-374 promoter region [1]	pri-miR-374, upregulation ([2]; 30 mg/kg BW−1, 2 hrs) [fold]	pri-miR-374 levels versus control ([2]; 30 mg/kg BW−1)	pri-miR-374 level, change ([2]; TPTX mice, 30 mg/kg BW−1)	pri-miR-374 mRNA levels, change [2, 4]	claudin-14 protein levels, change [3]	claudin-14 protein levels, percent of the vehicle treatment ([3]; single oral dose 30 mg/kg BW−1, 2 hrs, densitometric scale) [%]	H3K9 and H3K14 acetylation, miR-374 promoter, increase ([1]; 25 mg/kg BW−1, 4 hrs) [fold]	NFAT binding to miR-374 promoter ([1]; 25 mg/kg BW−1, 4 hrs)	transcriptional levels of miR-374 gene (pri-miR-374), increase ([2]; 25 mg/kg BW−1, 4 hrs) [fold]	CLDN14 protein levels, reduction ([3]; 25 mg/kg BW−1, 4 hr) [%]	pri-miR-374, downregulation ([2]; 30 mg/kg BW−1, 2 hrs) [%]	pri-miR-374 level, reduction ([2]; TPTX mice, 30 mg/kg BW−1, 2 hrs) [%]	pri-miR-374 mRNA levels, decrease [2, 4] [%]	claudin-14 protein levels, upregulation ([3]; single oral dose 30 mg/kg BW−1, 2 hrs) [fold]
CC(C)(Cc1ccc2ccccc2c1)NC[C@@H](O)COc1cccc(Cl)c1C#N [NPS2143]	1.93 fold	1.51 fold	2.91	not different from control	failed to elicit a significant change	failed to elicit any significant change	Neither NPS2143 nor cinacalcet caused changes	32	–	–	–	–	–	–	–	–
O=C(CCCCCCC(=O)Nc1ccccc1)NO [SAHA, Suberanilohydroxamic acid]	–	–	–	–	–	–	–	–	2.45	not affected	1.85	60	–	–	–	–
C[C@@H](NCCCc1cccc(C(F)(F)F)c1)c1cccc2ccccc12 [cinacalcet]	not	without significant effect	–	not different from control	–	–	Neither NPS2143 nor cinacalcet caused changes	–	–	–	–	–	71	53	39	2.98
